Data from PMC2898170 (Neuropsychiatric Disease and Treatment, 2010).

What was measured:
[1] = target: T1, PEPT2 (Homo sapiens, UniProt Q16348); assay: inhibition of radiolabeled Gly-Sar uptake in transfected CHO cells; format: cell-based
T1 sequence (Q16348 1-729): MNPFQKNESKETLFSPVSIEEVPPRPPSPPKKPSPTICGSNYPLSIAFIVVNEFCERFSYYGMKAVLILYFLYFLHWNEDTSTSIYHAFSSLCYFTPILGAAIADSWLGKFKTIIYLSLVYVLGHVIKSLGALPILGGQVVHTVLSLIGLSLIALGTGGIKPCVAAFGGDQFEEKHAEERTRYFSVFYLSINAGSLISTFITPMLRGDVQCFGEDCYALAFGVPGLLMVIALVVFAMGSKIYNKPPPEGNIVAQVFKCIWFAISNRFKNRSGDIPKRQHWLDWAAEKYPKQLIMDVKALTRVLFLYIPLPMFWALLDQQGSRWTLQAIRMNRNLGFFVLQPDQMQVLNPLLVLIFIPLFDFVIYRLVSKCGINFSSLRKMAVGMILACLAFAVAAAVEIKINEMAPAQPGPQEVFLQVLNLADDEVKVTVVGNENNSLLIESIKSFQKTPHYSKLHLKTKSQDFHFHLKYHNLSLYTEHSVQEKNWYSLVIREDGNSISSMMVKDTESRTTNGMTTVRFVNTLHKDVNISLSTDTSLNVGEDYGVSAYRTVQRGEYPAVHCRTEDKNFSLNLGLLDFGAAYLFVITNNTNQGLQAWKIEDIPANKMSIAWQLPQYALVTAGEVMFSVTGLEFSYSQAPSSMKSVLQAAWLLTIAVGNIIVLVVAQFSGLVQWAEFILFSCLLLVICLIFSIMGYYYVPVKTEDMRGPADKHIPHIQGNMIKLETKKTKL

[2] = target: T2, human peptide transporter-1 (PEPT1) (Homo sapiens, UniProt P46059); assay: as above; format: cell-based
T2 sequence (P46059 1-708): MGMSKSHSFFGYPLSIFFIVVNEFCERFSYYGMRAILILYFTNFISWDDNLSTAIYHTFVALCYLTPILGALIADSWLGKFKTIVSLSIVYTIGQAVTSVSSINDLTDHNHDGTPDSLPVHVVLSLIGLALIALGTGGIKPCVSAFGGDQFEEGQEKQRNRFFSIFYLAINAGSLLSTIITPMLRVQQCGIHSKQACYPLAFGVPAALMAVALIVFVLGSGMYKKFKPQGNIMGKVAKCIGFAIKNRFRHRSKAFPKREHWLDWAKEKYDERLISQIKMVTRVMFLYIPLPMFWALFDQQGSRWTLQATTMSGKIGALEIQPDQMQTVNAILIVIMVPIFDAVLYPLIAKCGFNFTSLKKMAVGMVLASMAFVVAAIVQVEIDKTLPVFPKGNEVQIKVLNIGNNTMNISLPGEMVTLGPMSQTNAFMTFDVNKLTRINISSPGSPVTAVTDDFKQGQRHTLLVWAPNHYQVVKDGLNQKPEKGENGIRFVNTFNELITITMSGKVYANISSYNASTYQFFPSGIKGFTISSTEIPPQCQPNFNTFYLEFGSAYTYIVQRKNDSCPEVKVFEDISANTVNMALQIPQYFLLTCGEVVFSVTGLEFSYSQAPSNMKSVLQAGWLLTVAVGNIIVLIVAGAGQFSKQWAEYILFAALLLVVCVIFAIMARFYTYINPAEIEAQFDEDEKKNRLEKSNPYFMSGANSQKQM

Work on `C[C@@H](Cc1ccccc1)NC(=O)[C@@H](N)CCCCN` [lisdexamfetamine dimesylate] yielded an IC50 [1] of 246 µM and an IC50 [2] of about 4000 µM.
